# From patent US20180339016A1 (priority 2015, published 2018)
# Where two headings read alike, the source gives them in different places.
# Key:
# [1] = system: Escherichia coli (ATCC 25922); settings: peptide alone; peptide concentration required to inhibit growth by 20% (so in the source)
# Procedure: The N-terminus of the peptides were acetylated and the C-terminus was amidated. The kinked structure can rapidly reduce the alpha-helical content, thereby greatly reducing the toxicity of the peptide against host cells. In addition, because of the potential to show specificity for the Gram-negative bacterial membrane, Pro-mutants were prepared by site-directed mutagenesis. Using the prepared peptides, their MIC for the Gram-negative bacterium E. coli and the Gram-positive bacterium S. aureus and their hemolytic activity for host cells were examined (Table 1).
# (§1) To measure the synergy between the membrane-activating peptides and the repositioning drug, a 10× compound was prepared, and then serially diluted ⅔-fold with distilled water. An MH broth (900 μl) was added to and mixed with the 10× compound (100 μl), and then 200 μL of the mixture was taken and added to a 96-well plate. E. coli cultured for one day was adjusted to 0.5 MCF using MCFarland, and diluted 10-fold, and then 10 μl of the dilution was added to each well of the plate (5×10^5 CFU/mL). After addition of the bacterial cells, plate was incubated at 37° C. for 18 hours, and then the OD value at UV-Vis (600 nm) was measured. Cell viability (%)=(OD600 of sample−OD600 of negative control)/(OD600 of positive control−OD600 of negative control)×100.
# E. coli ATCC 25922 = assay: Antibiotic interaction assay (Wimley), 2/3 broth microdilution: MIC alone, MIC of combination, FICI; format: cell-based; settings: for MIC of combination (μM): antibiotic: concentration of labelled drug in combination with KL-L9P; for FICI of drug with KL-L9P / FICIKL-L9P / FICIantibiotic: labelled drug + KL-L9P; for MIC of drug with 1 μM KL-L9P / dilution of MIC relative to drug alone: with 1 μM of KL-L9P; for FICI of drug with colistin: labelled drug + colistin
# Procedure: Synergy was evaluated by an antibiotic interaction assay (Wimley, 2015) Using the method of Wimley (BBA, 2015, v. 1848(1), pp. 8-15), synergy between the membrane-activating peptide and an antibiotic was measured by an FICI value (FIG. 17). […] Thus, to accurately examine synergy, a ⅔ dilution method which observes MIC at denser concentration intervals is advantageous over a ½ dilution method in statistical terms. […] In the same manner, the MIC of an antibiotic or repositioning drug (second line) is measured. In the third line, the two compounds are mixed after putting half amount each, and the MIC thereof is measured.
# A broth microdilution technique (⅔ dilution) was used together with an MH broth. E. coli treated with an antibiotic and the peptide was incubated in a 37° C. incubator for 18 hours.
# as §1
# [2] = Escherichia coli, ATCC25922, 18 h, drug alone, <20% growth of positive control, read-out: MIC of antibiotic
# [3] = Escherichia coli, ATCC25922, 18 h, Tables 19-23, read-out: MIC (μM) against E. coli ATCC, 1 compound alone
Compound,MIC [μM] Against E. coli [1] [µM],MIC (E. coli ATCC 25922; [2]) [µM],MIC of combination (μM): antibiotic (E. coli ATCC 25922) [µM],FICI of drug with KL-L9P (E. coli ATCC 25922),FICIKL-L9P (E. coli ATCC 25922),FICIantibiotic (E. coli ATCC 25922),also measured
KLLKLAKKPLKLLK [KL-L6AL9P],89,–,–,–,–,–,–
N[C@@H]1CONC1=O [D-cycloserine],–,–,–,–,–,–,synergy with KL-L9P (E. coli ATCC 25922): not synergistic
CN(C)[C@@H]1C(=O)C(C(N)=O)=C(O)[C@@]2(O)C(=O)C3=C(O)c4c(O)cccc4[C@@](C)(O)[C@H]3C[C@@H]12 [tetracyclin],–,–,–,–,–,–,synergy with KL-L9P (E. coli ATCC 25922): not synergistic
CC(C)Cc1ccc([C@@H](C)C(=O)O)cc1 [(R)-ibuprofen],–,12000,555.56,0.27,0.23,0.05,–
O=C(O)c1cn(C2CC2)c2cc(N3CCNCC3)c(F)cc2c1=O [ciprofloxacin],–,–,–,–,–,–,synergy with KL-L9P (E. coli ATCC 25922): not synergistic
COc1cc(/C=C/C(=O)CC(=O)/C=C/c2ccc(O)c(OC)c2)ccc1O [curcumin],–,396,78.70,0.30,0.10,0.20,"MIC (E. coli ATCC 25922; [3]): 300 µM; MIC (μM) against E. coli ATCC, combination of 3 compounds (E. coli ATCC 25922; KL-L9P + colistin + curcumin, concentration of labelled component): 20 µM; MIC (μM) against E. coli ATCC, combination of two compounds (E. coli ATCC 25922; KL-L9P + curcumin, concentration of labelled component): 79 µM; MIC (μM) against E. coli ATCC, combination of two compounds (E. coli ATCC 25922; colistin + curcumin, concentration of labelled component): 83 µM; MIC of drug with 1 μM KL-L9P (E. coli ATCC 25922): 4 µM; dilution of MIC relative to drug alone (E. coli ATCC 25922): about 330 fold"
CC(C)c1c(C(=O)Nc2ccccc2)c(-c2ccccc2)c(-c2ccc(F)cc2)n1CC[C@@H](O)C[C@@H](O)CC(=O)O [atorvastatin],–,> 500,166.67,0.60,0.38,0.22,–
KLLKLLKKQLKLLK [KL L9Q],1.25,–,–,–,–,–,–
Mtx- KLLKLLKKPLKLLK [Mtx-KL-L9P],5.0,–,–,–,–,–,–
COc1ccc2cc3[n+](cc2c1OC)CCc1cc2c(cc1-3)OCO2 [berberine],–,298,273.15,–,0.53,0.92,synergy with KL-L9P (E. coli ATCC 25922): not synergistic
CC(=O)NC[C@H]1CN(c2ccc(N3CCOCC3)c(F)c2)C(=O)O1 [linezolid],–,71.1,15.80,–,0.18,0.22,"lowering of MIC in combination KL-L9P/colistin/linezolid versus alone (E. coli ATCC 25922): 10 fold; MIC (E. coli ATCC 25922; [3]): 70 µM; MIC (E. coli ATCC 25922; Escherichia coli, ATCC25922, Example 7, read-out: MIC when the three compounds were used alone): 60 µM; MIC (E. coli ATCC 25922; Escherichia coli, ATCC25922, linezolid alone, read-out: MIC of Linezolid): 83 µM; MIC (μM) against E. coli ATCC, combination of 3 compounds (E. coli ATCC 25922; KL-L9P + colistin + linezolid, concentration of labelled component): 6.7 µM; MIC (μM) against E. coli ATCC, combination of two compounds (E. coli ATCC 25922; KL-L9P + linezolid, concentration of labelled component): 16 µM; MIC (μM) against E. coli ATCC, combination of two compounds (E. coli ATCC 25922; colistin + linezolid, concentration of labelled component): 36 µM; concentration killing E. coli in combination KL-L9P/colistin/linezolid (E. coli ATCC 25922; concentration of labelled component): 6 µM; FICI of drug with colistin (E. coli ATCC 25922): about 1; MIC (E. coli ATCC 25922; linezolid alone, read-out: MIC of Linezolid): 59 µM; MIC of drug with 1 μM KL-L9P (E. coli ATCC 25922): 10 µM; dilution of MIC relative to drug alone (E. coli ATCC 25922): about 16 fold"
CCC(C)(C)C(=O)O[C@H]1C[C@@H](C)C=C2C=C[C@H](C)[C@H](CC[C@@H]3C[C@@H](O)CC(=O)O3)[C@H]21 [simvastatin],–,> 500,52.47,0.18,0.11,0.07,"MIC (E. coli ATCC 25922; [3]): > 500 µM; MIC (E. coli ATCC 25922; Escherichia coli, ATCC25922, simvastatin alone, read-out: MIC of simvastatin): 750 µM; MIC (μM) against E. coli ATCC, combination of 3 compounds (E. coli ATCC 25922; KL-L9P + colistin + simvastatin, concentration of labelled component): 33 µM; MIC (μM) against E. coli ATCC, combination of two compounds (E. coli ATCC 25922; KL-L9P + simvastatin, concentration of labelled component): 53 µM; MIC (μM) against E. coli ATCC, combination of two compounds (E. coli ATCC 25922; colistin + simvastatin, concentration of labelled component): 71 µM"
KLAKLAKKPLKLAK [KLA-L9P],> 200,–,–,–,–,–,–
CC(C)Cc1ccc([C@H](C)C(=O)O)cc1 [(S)-ibuprofen],–,12000,416.67,0.23,0.20,0.03,"MIC (E. coli ATCC 25922; [3]): 12000 µM; MIC (μM) against E. coli ATCC, combination of two compounds (E. coli ATCC 25922; KL-L9P + (S)-ibuprofen, concentration of labelled component): 420 µM; MIC (μM) against E. coli ATCC, combination of 3 compounds (E. coli ATCC 25922; KL-L9P + colistin + (S)-ibuprofen, concentration of labelled component): 98 µM; MIC (μM) against E. coli ATCC, combination of two compounds (E. coli ATCC 25922; colistin + (S)-ibuprofen, concentration of labelled component): 830 µM"
CC[C@H](C)C(=O)O[C@H]1C[C@@H](C)C=C2C=C[C@H](C)[C@H](CC[C@@H]3C[C@@H](O)CC(=O)O3)[C@H]21 [lovastatin],–,> 500,74.07,0.24,0.14,0.10,–
KLLKLLKKNLKLLK [KL L9N],2.5,–,–,–,–,–,–
CC(=O)Oc1ccccc1C(=O)O [aspirin],–,519,479.17,1.59,0.66,0.92,synergy with KL-L9P (E. coli ATCC 25922): not synergistic
Cc1onc(-c2ccccc2Cl)c1C(=O)N[C@@H]1C(=O)N2[C@@H]1SC(C)(C)[C@@H]2C(=O)O [cloxacillin],–,74.1,17.78,–,0.25,0.24,"MIC (E. coli ATCC 25922; [3]): 70 µM; MIC (μM) against E. coli ATCC, combination of two compounds (E. coli ATCC 25922; KL-L9P + cloxacillin, concentration of labelled component): 18 µM; MIC (μM) against E. coli ATCC, combination of 3 compounds (E. coli ATCC 25922; KL-L9P + colistin + cloxacillin, concentration of labelled component): 9.4 µM; MIC (μM) against E. coli ATCC, combination of two compounds (E. coli ATCC 25922; colistin + cloxacillin, concentration of labelled component): 38 µM; FICI of drug with colistin (E. coli ATCC 25922): about 1; MIC of drug with 1 μM KL-L9P (E. coli ATCC 25922): 0.3 µM; dilution of MIC relative to drug alone (E. coli ATCC 25922): 128 fold"
Mtx- LKKLLKLPKKLLKL [Mtx-LK-L8P],5.0,–,–,–,–,–,–
KLLKLLKKELKLLK [KL L9E],5,–,–,–,–,–,–
CC(=O)Nc1ccc(O)cc1 [acetaminophen],–,–,–,–,–,–,synergy with KL-L9P (E. coli ATCC 25922): not synergistic
Oc1ccc(C=Cc2cc(O)cc(O)c2)cc1 [resveratrol],–,1770,246.91,0.25,0.11,0.14,–
CC(C)Cc1ccc(C(C)C(=O)O)cc1 (stereo not shown) [ibuprofen],–,–,–,–,–,–,MIC of drug with 1 μM KL-L9P (E. coli ATCC 25922): 3 µM; dilution of MIC relative to drug alone (E. coli ATCC 25922): about 3000 fold
KLLKLLKKSLKLLK [KL L9S],1.25,–,–,–,–,–,–
Mtx- KLLKLPKKLLKLLK [Mtx-KL-L6P],5.0,–,–,–,–,–,–
O=c1c(O)c(-c2ccc(O)c(O)c2)oc2cc(O)cc(O)c12 [quercetin],–,7500,108.39,0.35,0.33,0.01,–
KLLKLLKKGLKLLK [KL L9G],1.25,–,–,–,–,–,–
